Measured values taken from patent publication US20180252705A1, “Myeloid Progenitor Cells in Kidney Disease” (Rush University Medical Center, priority 2015, published 2018).
“Also recorded” adds a separate entry of the source. Where a name gives a salt, the structure may show the parent alone.

Tests used:
BM myeloid cells = experiment: Flow cytometric analysis of BM cells (uPAR, Gr-1, Sca-1) in proteinuric animal models; assay type: in vivo, mouse
Description: (§1) Proteinuric animal models. i) LPS injected mice. Proteinuria was induced with single injection of LPS as described previously (Wei et al., 2008; Wei et al.,). Briefly, mice were injected with LPS (Sigma) i.p at a dose of 10 mg per kg body weight. The mice injected with PBS were used as a control. Twenty-four hours after LPS treatment, urine and blood samples were collected and kidney, femurs, and tibias were harvested from the sacrificed mice.
ii) Pod-Rac1, Inducible EGFP_CA-Rac1 transgenic mice. EGFP_CA-Rac1 transgenic mice were crossed to Nphs1-rtTA (NEF-rtTA) inducer mice to generate double transgenic (dTG, NEF×Rac1) mice. Male mice were used in this study. To induce transgene expression, regular chow was replaced with doxycycline (DOX)-supplemented chow (2,000 ppm; TestDiet). Single transgenic (EGFP_CA-Rac1) mice were used as a control. Twelve days after DOX diet, urine and blood samples were collected and kidney, femurs, and tibias were harvested from the sacrificed mice. Hi) Adiamycin (ADR) injected mice: Proteinuria was induced with single injection of ADR as described previously. (Wang et al.) Briefly, male BALB/c mice were injected with ADR (Doxorubicin Hydrochloride, Sigma) via the tail vein at a dose of 11 mg per kg body weight. Six days after ADR injection, urine and blood samples were collected and kidney, femurs, and tibias were harvested from the sacrificed mice. iv) TGF β1 transgenic mice: The transgenic mice that express an active form of TGF β1 under the control of murine albumin promoter developed proteinuria as described previously (Kopp et al.). Since the transgene is on the Y chromosome, male mice (<4-week-old) with severe phenotype were used. Littermate female mice were used as a control. v) Nephrotoxic serum (NTS) nephritis model: Proteinuria was induced by injection of NTS as described previously (Kistler et al.). Briefly, male C57BL6 mice were injected i.p with sheep anti-rabbit glomerular basement membrane antibody at a dose of 500 mg per kg body weight on consecutive days. The mice injected PBS were used as a control. Seven days after injection, urine and blood samples were collected and kidney, femurs, and tibias were harvested from the sacrificed mice. vi) BTBR ob/ob diabetic nephropathy (DN) model: The mouse strain BTBR with the ob/ob leptin-deficiency mutation developed severe type 2 diabetes with heavy proteinuria as described previously (Hudkins et al.). Wild-type (BTBR ob^+/+), heterozygous (BTBR ob^+/−), and homozygous (BTBR ob^−/−) mice were obtained by mating heterozygous (BTBR ob^+/−) mice. For DN model, 16-week-old homozygotes (BTBR ob^−/−) were used. Wild-type (BTBR ob^+/+) or heterozygote (BTBR ob^+/−) littermates were used as controls.
Purification of mouse PBLs and BMCs. To collect blood, mice were anesthetized, then the blood was drawn from posterior vena cava into acid-citrate-dextrose (ACD, Sigma) solution-containing 1 ml syringe. After lysis of red blood cells (RBCs), blood leukocytes were washed and counted. For BMCs purification, femurs and tibias were taken and flushed with a syringe filled with Hank's balanced salt solution (HBSS, Life Technologies) containing 0.1% bovine serum albumin and 20 mM HEPES (pH 7.4). […]
Flow cytometric analysis. […] And the cells were labeled for 30 minutes on ice with fluorescence-conjugated antibodies: Gr-1-allophycocyanin (APC), uPAR-phycoerythrin (PE), Sca-1-fluorescein isothiocyanate (FITC), c-kit-APC, and irrelevant IgG isotype control antibodies. […]

suPAR [1] = experiment: Circulating and urinary suPAR levels (ELISA) in proteinuric animal models; assay type: in vivo, mouse
Description: (§2) Detection of circulating and urinary suPAR levels Mouse suPAR levels from plasma (and/or serum) and urine were evaluated by enzyme-linked immunosorbent assay (ELISA) kit (R&D systems) following the manufacturer's protocol.
as §1
ii) Pod-Rac1, Inducible EGFP_CA-Rac1 transgenic mice. EGFP_CA-Rac1 transgenic mice were crossed to Nphs1-rtTA (NEF-rtTA) inducer mice to generate double transgenic (dTG, NEF×Rac1) mice. Male mice were used in this study. To induce transgene expression, regular chow was replaced with doxycycline (DOX)-supplemented chow (2,000 ppm; TestDiet). Single transgenic (EGFP_CA-Rac1) mice were used as a control. Twelve days after DOX diet, urine and blood samples were collected and kidney, femurs, and tibias were harvested from the sacrificed mice. Hi) Adiamycin (ADR) injected mice: Proteinuria was induced with single injection of ADR as described previously. […]

LPS-challenged mice = experiment: LPS-induced proteinuria after pretreatment, albumin creatinine ratio (ACR); assay type: in vivo, mouse; settings: agent given prior to LPS challenge; urine 24 hours after LPS; compared to LPS alone / isotype control
Description: (§3) Albumin creatinine ratio (ACR) measurement Mouse urine samples were collected and urinary albumin and creatinine were measured by mouse albumin ELISA (Bethyl Labs), and creatinine assay (Cayman chemical) kits according to manufacturers' protocols. The ratio of urinary albumin to creatinine was then calculated.
as §1
In vivo depletion. Anti-Ly6G monoclonal antibody (1A8, BioXcell) or control rat IgG2a antibody (2A3, BioXcell) was injected i.p into mice (500 μg per mouse) 48 hours and 1 hour prior to LPS injection. Neutrophil depletion was confirmed by flow cytometric analysis.
(§4) Treatment of granulocyte colony stimulating factor (G-CSF). Recombinant mouse G-CSF (Shenandoah Biotechology INC) was administrated by daily i.p injection into BALB/c mice at a dose of 4 μg per 20 g body weight for 2 consecutive days. Blood cell counts were determined using a Hemavet 950FS (Drew Scientific).
Treatment of plerixafor. […]

NSG mice = experiment: Proteinuria (ACR) in LPS injected NSG mice; assay type: in vivo, mouse; settings: LPS vs PBS, 24 hours after LPS administration
Description: as §3, §1

BM cells = experiment: in vitro LPS stimulation on isolated BM cells; assay type: cell-based, mouse; settings: LPS 0.1, 1 and 10 μg/ml, 24-hour incubation, dose-dependent
Description: in vitro LPS stimulation on isolated BM cells. The BM cells were isolated from C57BL6 WT mice and treated with PBS or various concentrations of LPS (0.1, 1, and 10 μg/ml). Following 24-hour-incubation at 37 C in a CO2 incubator (5%), the cells and culture supernatants were collected. The cells were stained for uPAR, Sca-1, and Gr-1. The in vitro induction of uPAR+Sca-1^loGr-1^lo cells in total BM cells was determined by triple color-flow cytometric analysis. The culture supernatants were used for suPAR measurement.

suPAR [2] = experiment: Plasma suPAR levels (ELISA) in pretreated LPS-challenged mice; assay type: in vivo, mouse; settings: G-CSF for two consecutive days prior to LPS; 24 hours after LPS; compared to LPS alone
Description: as §2, §1, §4

[3] = ADR-induced nephropathy, male BALB/c, 11 mg per kg tail vein, six days after injection

Molecule: COc1cccc2c1C(=O)c1c(O)c3c(c(O)c1C2=O)C[C@@](O)(C(=O)CO)C[C@@H]3O[C@H]1C[C@H](N)[C@H](O)[C@H](C)O1 [ADR, Doxorubicin Hydrochloride]
- percentage of Gr-1^lo myeloid cells in BM (BM myeloid cells; [3]): no significant increase
- suPAR levels in the circulation or urine (suPAR [1]; [3]): did not find elevated suPAR levels

Molecule: c1cc(CN2CCCNCCNCCCNCC2)ccc1CN1CCCNCCNCCCNCC1 [plerixafor, Plerixafor]
- proteinuria (ACR) (LPS-challenged mice): did not enhance proteinuria

Molecule: lipopolysaccharide [LPS]
- proteinuria (ACR) (NSG mice): resulting in proteinuria; also recorded: caused proteinuria
- uPAR-expressing Sca-1/Gr-1^lo BM cell population (myeloid progenitor cells) (BM myeloid cells; LPS vs PBS injected mice, 24 hours): increased uPAR-expressing BM cell population; also recorded: increased the population of Sca-1^+Gr-1^lo myeloid progenitor cells
- uPAR expression on BM myeloid cells (not peripheral blood myeloid cells) (BM myeloid cells; LPS-treated vs PBS-treated mice): elevated levels of uPAR; also recorded: increased uPAR expression
- uPAR expression on BM myeloid cells (BM myeloid cells; NSG mice, LPS vs PBS): increased uPAR expression on BM myeloid cells
- Gr-1^lo cells in BM (percentage; ratio to Gr-1^hi) (BM myeloid cells; WT mice, LPS vs PBS, 24 hours): significant increase; also recorded: markedly increased ratio
- suPAR levels in blood and urine (suPAR [1]; NSG mice, LPS vs PBS, 24 hours after LPS administration): elevated suPAR levels in both blood and urine; also recorded: enhanced blood suPAR levels
- expansion of uPAR-expressing MPCs (uPAR+Sca-1^lo Gr-1^lo cells in total BM cells) (BM cells): stimulated the expansion of uPAR-expressing MPCs
- suPAR secretion into the culture medium (BM cells; suPAR ELISA): stimulated

B1: G-CSF: Recombinant mouse G-CSF (Shenandoah Biotechology INC) (protein, UniProt P09920 31-208, looked up)
Granulocyte …: VPLVTVSALPPSLPLPRSFLLKSLEQVRKIQASGSVLLEQLCATYKLCHPEELVLLGHSLGIPKASLSGCSSQALQQTQCLSQLHSGLCLYQGLLQALSGISPALAPTLDLLQLDVANFATTIWQQMENLGVAPTVQPTQSAMPAFTSAFQRRAGGVLAISYLQGFLETARLALHHLA
- plasma suPAR levels (suPAR [2]): increased plasma suPAR levels; also recorded: enhanced plasma suPAR levels
- proteinuria (ACR) (LPS-challenged mice): accelerated proteinuria
